Laboratory results published in ChEMBL document CHEMBL1201862, “PubChem BioAssay data set” (2004).
The source made the active and inactive calls.

Assays:
[1] = target: T1, Streptokinase A (Streptococcus pyogenes serotype M1, UniProt P10520); assay: viability-normalized secreted streptokinase activity reduction – plasminogen activation absorbance, OD405, dose response (AID 1914); type: functional, Streptococcus pyogenes M1 GAS;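 further: secreted streptokinase activity via plasminogen activation per viability signal from cell pellet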
T1 sequence (P10520 whole entry): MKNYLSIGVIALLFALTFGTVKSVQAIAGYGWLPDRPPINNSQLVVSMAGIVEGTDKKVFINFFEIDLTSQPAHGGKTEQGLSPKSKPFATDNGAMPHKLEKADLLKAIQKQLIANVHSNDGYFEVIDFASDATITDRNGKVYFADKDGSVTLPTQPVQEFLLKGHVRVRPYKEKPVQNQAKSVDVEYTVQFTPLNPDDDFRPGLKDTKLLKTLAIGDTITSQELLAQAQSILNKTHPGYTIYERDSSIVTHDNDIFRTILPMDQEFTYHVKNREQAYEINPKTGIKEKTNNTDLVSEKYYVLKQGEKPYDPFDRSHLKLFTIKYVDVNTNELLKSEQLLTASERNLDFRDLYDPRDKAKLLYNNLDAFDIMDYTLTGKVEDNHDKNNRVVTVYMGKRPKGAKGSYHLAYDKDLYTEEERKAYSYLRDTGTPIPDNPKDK

[2] = tested on: Streptococcus; assay: GAS UMAA2166 growth inhibition – luminescence, BacTiterGlo, counter-screen for streptokinase expression inhibitor project, dose response (AID 1915); type: functional, organism-based;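 further: potency for reduction of bacterial viability or growth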
[3] = tested on: Streptococcus sp. 'group A'; assay: Streptococcus pyogenes SK(-)GAS viability under kanamycin – luminescence, BacTiterGlo, confirmation, counter-screen for streptokinase expression inhibitor project, dose response (AID 1900); type: functional, organism-based
[4] = target: T2, Carboxy-terminal domain RNA polymerase II polypeptide A small phosphatase 1 (Homo sapiens, UniProt Q9GZU7); assay: CTDSP1 inhibitors, concentration-response, biochemical, absorbance readout, ultra-high-throughput screen actives (AID 540297); type: functional
T2 sequence (Q9GZU7 whole entry): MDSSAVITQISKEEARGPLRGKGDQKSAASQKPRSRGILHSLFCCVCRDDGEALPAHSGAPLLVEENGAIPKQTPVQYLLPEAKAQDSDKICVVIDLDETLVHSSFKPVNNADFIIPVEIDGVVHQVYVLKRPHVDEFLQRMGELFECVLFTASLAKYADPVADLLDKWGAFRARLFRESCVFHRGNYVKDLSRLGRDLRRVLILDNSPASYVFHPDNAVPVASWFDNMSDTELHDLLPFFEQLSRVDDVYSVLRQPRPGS

[5] = target: FAD-linked sulfhydryl oxidase ALR (Homo sapiens, UniProt P55789); assay: ALR-catalysed DTT oxidation blockers – biochemical, H2O2 detection, luminescence, cherry-pick, dose response (AID 493248)
FAD-linked sulfhydryl oxidase ALR, sequence (P55789 whole entry): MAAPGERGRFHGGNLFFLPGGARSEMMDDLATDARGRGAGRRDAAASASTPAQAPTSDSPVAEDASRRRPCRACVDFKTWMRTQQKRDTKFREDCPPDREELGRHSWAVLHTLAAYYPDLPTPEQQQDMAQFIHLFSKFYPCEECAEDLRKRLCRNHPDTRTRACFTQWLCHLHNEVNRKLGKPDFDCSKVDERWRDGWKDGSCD

[6] = target: T3, Rac GTPase-activating protein 1 (Homo sapiens, UniProt Q9H0H5); assay: blockers of MgcRacGAP-driven Rac1 GTP hydrolysis – biochemical, ADP Hunter fluorescence, primary and confirmatory, confirmation (AID 624330); type: functional
T3 sequence (Q9H0H5 whole entry): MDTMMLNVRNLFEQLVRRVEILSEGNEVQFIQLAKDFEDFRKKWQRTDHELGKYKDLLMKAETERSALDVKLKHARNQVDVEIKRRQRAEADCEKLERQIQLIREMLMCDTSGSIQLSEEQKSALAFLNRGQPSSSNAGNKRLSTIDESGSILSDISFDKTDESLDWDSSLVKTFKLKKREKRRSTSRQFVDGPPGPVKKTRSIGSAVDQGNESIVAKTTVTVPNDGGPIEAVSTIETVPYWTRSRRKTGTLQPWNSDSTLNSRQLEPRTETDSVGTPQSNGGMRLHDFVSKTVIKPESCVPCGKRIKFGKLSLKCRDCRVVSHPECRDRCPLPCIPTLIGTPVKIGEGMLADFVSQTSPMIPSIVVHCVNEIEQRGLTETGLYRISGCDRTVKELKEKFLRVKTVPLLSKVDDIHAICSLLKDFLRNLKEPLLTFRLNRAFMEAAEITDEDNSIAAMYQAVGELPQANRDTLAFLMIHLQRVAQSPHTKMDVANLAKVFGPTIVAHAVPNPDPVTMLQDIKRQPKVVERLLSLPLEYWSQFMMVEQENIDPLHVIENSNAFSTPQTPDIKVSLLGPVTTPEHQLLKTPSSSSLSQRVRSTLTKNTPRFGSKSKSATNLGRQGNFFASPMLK

[7] = viability of HCT116 lacking mutant beta-catenin – cell-based, human colon tumor, dose response (AID 1045); type: functional;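 further: HCT116 colon tumor cells with beta catenin knocked out; cells exposed to compound for 60 hours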
[8] = viability of PTEN-deleted HCT116 cells – cell-based, HCT116 PTEN knockout, dose response (AID 1047); type: functional;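 further: HCT116 colon tumor cells with PTEN knocked out; cells exposed to compound for 60 hours before readout; potency for loss of cell viability measured by luminescence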
[9] = blockers of bursicon-stimulated LGR2 cAMP reporter – cell-based, HEK293, CRE-luciferase reporter, cherry pick, set 2, dose response (AID 743343); type: functional;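 further: transfected cells were stimulated with diluted bursicon conditioned medium after compound addition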
[10] = blockade of melanocortin 4 receptor signaling – cell-based, plate reader, cherry pick, counter-screen for LGR2 antagonist project, dose response (AID 743444); type: functional;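 further: transfected HEK 293 cells stimulated with alpha-MSH peptide; potency of inhibitors of the alpha-MSH evoked signal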
[11] = target: T4, Corticotropin-releasing factor receptor 2/Corticotropin-releasing factor-binding protein (Homo sapiens, UniProt P24387+Q13324); assay: activators of CRF receptor 2 with binding protein – uHTS hits, confirmation (AID 602473); type: functional; conditions: read-out: EC50_Mean
T4 sequence (Q13324 whole entry): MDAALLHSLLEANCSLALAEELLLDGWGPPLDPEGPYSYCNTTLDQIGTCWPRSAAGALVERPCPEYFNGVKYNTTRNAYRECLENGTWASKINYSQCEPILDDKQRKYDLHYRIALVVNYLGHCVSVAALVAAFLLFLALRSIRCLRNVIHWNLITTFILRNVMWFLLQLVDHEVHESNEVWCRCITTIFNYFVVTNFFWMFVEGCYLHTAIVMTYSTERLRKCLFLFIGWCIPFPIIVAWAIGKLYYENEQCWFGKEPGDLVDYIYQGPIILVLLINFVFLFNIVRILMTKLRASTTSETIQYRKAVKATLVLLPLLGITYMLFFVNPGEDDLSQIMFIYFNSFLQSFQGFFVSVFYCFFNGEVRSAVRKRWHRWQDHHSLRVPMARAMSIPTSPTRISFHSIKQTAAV
T4 sequence (P24387 whole entry): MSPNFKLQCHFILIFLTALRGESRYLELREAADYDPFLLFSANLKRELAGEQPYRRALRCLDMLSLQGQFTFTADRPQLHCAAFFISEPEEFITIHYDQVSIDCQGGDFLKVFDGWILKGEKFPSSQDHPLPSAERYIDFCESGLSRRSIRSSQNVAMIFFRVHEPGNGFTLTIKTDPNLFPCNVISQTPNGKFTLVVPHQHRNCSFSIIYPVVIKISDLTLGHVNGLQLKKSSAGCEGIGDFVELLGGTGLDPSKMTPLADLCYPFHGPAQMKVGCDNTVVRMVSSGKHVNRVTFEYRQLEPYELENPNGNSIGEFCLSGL

[12] = target: T5, Ubiquitin-conjugating enzyme E2 N (Homo sapiens, UniProt P61088); type: functional;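 further: Dose-response confirmation in a TR-FRET assay detecting UBC13-driven polyubiquitin chain formation, inhibition measured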
T5 sequence (P61088 whole entry): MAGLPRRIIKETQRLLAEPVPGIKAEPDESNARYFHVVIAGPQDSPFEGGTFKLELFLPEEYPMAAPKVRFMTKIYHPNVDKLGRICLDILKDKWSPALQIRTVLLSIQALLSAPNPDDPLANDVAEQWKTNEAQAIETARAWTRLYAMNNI

[13] = tested on: INS1; assay: INS-1E survival protection against cytokine death – cell-based, luminescence, retest, dose response (AID 449756); type: functional; conditions: Rattus norvegicus;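 further: cell death triggered by IL-1 beta plus TNF-alpha plus IFN-gamma mixture; protective hits raise ATP signal compared with cytokine alone wells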
[14] = fluconazole-exposed Candida albicans growth modulators – fluorescence, retest, confirmation (AID 2467); type: functional, cell-based
[15] = NIH-3T3 fibroblast cytotoxicity, dose response, cytotoxicity control, cell-based, fluorescence, Alamar Blue, secondary assay (AID 2327); type: functional;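 further: NIH-3T3 mouse fibroblasts cultured with fluconazole at 8 µg/mL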
[16] = viability of uninfected HEp-2 cells – cell-based, HTS, cytotoxicity control for RSV inhibitor project, dose response (AID 2410); type: functional; conditions: human respiratory syncytial virus
[17] = tested on: H9c2; assay: cells; type: functional, cell-based; conditions: Rattus norvegicus, H9c2, Myocardium;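 further: confirmatory concentration-response retest of ultra-high-throughput screening hits for modulation of myocardial damage; cell death induced by hydrogen peroxide oxidative stress; compound pretreatment for 60 min then peroxide exposure for 2 h; potency is for protecting the cells against peroxide damage rather than for killing them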

For COc1ccc(Cn2c(C3CCCCC3)nc3c(c(=O)c4ccccc4n3C)c2=O)cc1, the EC50 [1] was > 150 µM (not active), the EC50 [2] was 6.96 µM (active) and the EC50 [3] was 6.03 µM (active). For the same compound, the IC50 [4] was 5.55 µM (active).

For CCCc1cc(C(N)=O)c(NC(=O)c2ccoc2C)s1, the AC50 [5] was 2.74 µM (active).

With COc1cc2nc(S)n3nc(CCn4nc(C)cc4C)nc3c2cc1OC the IC50 [6] was 23.2 µM (active), the EC50 [1] was > 150 µM (not active) and the EC50 [7] was 25 µM (active). The EC50 [2] was > 150 µM (not active), the EC50 [3] was 28.4 µM (active) and the EC50 [8] was 14.5 µM (active).

For c1ccc(-n2ncc3c(N4CCCCC4)ncnc32)cc1, the AC50 [9] was 1.94 µM (active) and the AC50 [10] was 2.83 µM (active).

With Cc1nc(SCc2cccnc2)nc(O)c1C the AC50 [5] was 1.18 µM (active).

For [O-][S+](c1ccc2ccccc2c1)c1cnns1 (stereo not drawn), the AC50 [5] was 0.769 µM (active).

In the case of COc1ccc(N2CCN(CCCNC(=O)C3CCCN(S(=O)(=O)c4c[nH]cn4)C3)CC2)cc1 (stereo not drawn), the AC50 [5] is reported as 25.4 µM (active).

In the case of O=C1c2ccccc2C(=O)N1c1ncc(Cc2ccc(Cl)cc2)s1, the EC50 [11] is reported as 2.43 µM (active).

For O=C(O)c1ccc(NC(=O)C2CCCCC2)cc1, the EC50 [11] was > 53 µM (inactive).

With CCCCCc1ccc(OCCCC[n+]2ccccc2)c(CCCCC)c1 the IC50 [12] was > 20 µM (inactive), the EC50 [1] was 27.1 µM (active) and the AC50 [13] was 2.79 µM (active). The EC50 [2] was 8.33 µM (active), the EC50 [3] was 3.85 µM (active) and the EC50 [14] was < 0.03 µM (active). The EC50 [15] was > 160 µM (inactive).

For CC(=O)c1ccccc1OCC(O)CN1CCN(CCN2C(=O)c3cccc4cccc(c34)C2=O)CC1 (stereo not drawn), the IC50 [12] was > 20 µM (inactive), the CC50 [16] was > 50 µM (active) and the IC50 [17] was 23.1 µM (active).
